# Test results: patent publication US20140206559A1, “ASSAY FOR […] OF TUMOR CELLS” (PRESIDENT AND FELLOWS OF HARVARD COLLEGE, priority 2011, published 2014)
# System: invasive cells (PC-3 and DU-154)
# Experiment: three-dimensional in vitro invasion assay (CiGiP, paper-Matrigel layers, calcein stain)
# Assay type: cell-based
# Details: PC-3 and DU-154 prostate cancer cells in stacked paper-Matrigel layers; 1-5 days culture of stacked layers; inhibitor of actin-based motility present
# Experimental: The following invasive potential of the cell lines were assessed using the 3D in vitro assay as disclosed herein: Breast cancer cells; triple negative highly invasive cell line MDA-MB-231. Prostate cancer cells: highly invasive PC-3 and DU-154 isolate from bone and brain metastases, weakly invasive LNCaP and CWR-22 lines. Control cells included normal prostate epithelial cells (RWPE-1) and fibroblasts (HIN 3T3) as negative controls.
# Permeation of the suspension of cells in Matrigel into paper yielded thin (200 μm) layers of Matrigel with cells trapped within [Derda et al, PNAS 2009; Derda et al, PLoS submitted]. […] The inventors also assessed other combinations of different numbers of seed-substrates and different numbers of receiving-substrates.
# After additional 1-5 days of culture of the 3-D assay of stacked layers, the layers were separated by peeling apart and the amount of cells (e.g., the number, density or quantity) of cells in one or more receiving layer was measured, and optionally the amount of the amount of cells (e.g., the number, density or quantity) of cells in the seed-substrate layer. […]
# To measure the quantity of cells in each layer, the layers were incubated in solution of calcein which stains viable cells and the layers were imaged using fluorescent scanner at 100 micron resolution. […]
structure (smiles),measurement,value
C=C1[C@@H](C)[C@H]2[C@H](Cc3ccccc3)NC(=O)[C@]23[C@H](OC(C)=O)/C=C/[C@@](C)(O)C(=O)[C@@H](C)C/C=C/[C@H]3[C@@H]1O [cytoclasin D],"invasion of the upper ""receiver-substrate"" layer by invasive cells",blocked
